From patent US10654868B2, “Dihydropyrazole azepine compound serving as Akt inhibitor” (HARBIN ZHENBAO PHARMACEUTICAL CO., LTD., priority 2016, dated 2020)

Legend:
Akt3 = biological target: T1, Akt3 (Homo sapiens, UniProt Q9Y243); assay: Akt3 kinase inhibition, LANCE TR-FRET; type: biochemical; conditions: Akt3 2 nM, ATP 160 uM, 90 min at room temperature
T1 construct: purchased life technology lot 1715050B (lot number only, catalogue number not given)
Procedure: (§1) Study 1: The Inhibitory Effect of the Compounds on the Activity of Akt1, Akt2 and Akt3
Akt3 protein (life technology # lot 1715050B)
(§2) In this experiment, a homogeneous time-resolved fluorescence […] energy transfer (LANCE TR-FRET®) method was used. In the assay plate, enzymes, biotinylated polypeptide substrates and compound to be tested were mixed, and ATP was added to initiate the reaction and the mixture was incubated. After that, EDTA was added to terminate the reaction while an Eu-labeled antibody was added to carry out the reaction and the reaction was then detected. The assay plate was analyzed by PE company's Envision, and the analysis mode was TR-FRET. The data were represented by fluorescence signals at 665 nm and 615 nm, respectively.
(§3) Compound formulation: compound to be tested and the reference compound were diluted with 100% DMSO, the initial concentration of the compound was 10 uM, and diluted by 10 times in a 3-fold gradient. Transfer the compound to the cell plate and duplicate each well.
(§4) Kinase assay: the enzyme and substrate were mixed with different concentrations of pre-diluted compounds. […] Leave at room temperature for 15 min and diplicate each concentration. ATP was added, and the final concentrations were 36 uM, 360 uM and 160 uM in Akt1, Akt2, and Akt3 kinase reactions, respectively, and the reaction was carried out for 90 min at room temperature (in which negative and positive controls were set). After the reaction was completed, the antibody was added and the mixture was detected, and the cells were incubated for 60 min at room temperature, and then collected by Evnvision. Data analysis and fitting according to *Lfit5 software.

Akt2 = biological target: T2, Akt2 (Homo sapiens, UniProt P31751); assay: Akt2 kinase inhibition, LANCE TR-FRET; type: biochemical; conditions: Akt2 2 nM, ATP 360 uM, 90 min at room temperature
T2 construct: purchased life technology lot 28870GG (lot number only, catalogue number not given)
T2 sequence (P31751 whole entry): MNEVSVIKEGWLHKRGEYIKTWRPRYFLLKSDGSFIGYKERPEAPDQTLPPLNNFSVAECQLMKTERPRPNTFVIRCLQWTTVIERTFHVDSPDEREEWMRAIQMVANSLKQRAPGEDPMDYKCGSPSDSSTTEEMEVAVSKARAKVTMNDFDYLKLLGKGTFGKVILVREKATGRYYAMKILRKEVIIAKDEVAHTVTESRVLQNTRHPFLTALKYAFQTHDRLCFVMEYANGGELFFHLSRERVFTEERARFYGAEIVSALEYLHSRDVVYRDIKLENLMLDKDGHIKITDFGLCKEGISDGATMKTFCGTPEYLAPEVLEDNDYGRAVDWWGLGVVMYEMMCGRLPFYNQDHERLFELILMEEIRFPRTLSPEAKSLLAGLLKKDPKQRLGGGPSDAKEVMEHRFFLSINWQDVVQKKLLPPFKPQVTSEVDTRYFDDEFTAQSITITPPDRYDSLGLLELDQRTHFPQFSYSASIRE
Procedure: as §1
Akt2 protein (life technology # lot 28870GG)
as §2, §3, §4

LNCaP cells = assay: LNCaP cell activity, CellTiter-Glo live cell detection; type: cell-based; conditions: Homo sapiens, 72 h, 1000 cells per well, incubated 3 days, starting concentration 10 uM
Procedure: Study 2: inhibitory effects of compounds on LNCaP cell activity
The amount of ATP directly reflects the number and the state of the cells, and the number of live cells can be detected by quantitatively measuring ATP. The live cell assay kit contains luciferase and its substrate. Through the participation of ATP, luciferase can catalyze the substrate, emit a stable optical signal, and the amount of ATP in the cell was determined by detecting the intensity of the signal. Wherein, the optical signal is proportional to the amount of ATP in the cell, and ATP is positively correlated with the number of live cells, so that the cell proliferation can be detected. The assay board is analyzed by PE company's Envision.
LNCaP cell was separately seeded in a 384-well plate, each well contains 1000 cells. The cell plate was placed in a carbon dioxide incubator and incubated overnight.
A duplicated experiment was performed with 10 concentrations of compound in a 3-fold dilution with Bravo.
Compound was transferred to the cell plate with a starting concentration of 10 uM. The cell plate was incubated in a carbon dioxide incubator for 3 days.
The Promega CellTiter-Glo reagent was added to the cell plate and incubated for 10 min at room temperature to stabilize the optical signal. Read the data by a PerkinElmer Envision multi-label analyzer.

Akt1 = biological target: T3, Akt1 (Homo sapiens, UniProt P31749); assay: Akt1 kinase inhibition, LANCE TR-FRET; type: biochemical
T3 construct: purchased life technology lot11629928C (lot number only, catalogue number not given)
T3 sequence (P31749 whole entry): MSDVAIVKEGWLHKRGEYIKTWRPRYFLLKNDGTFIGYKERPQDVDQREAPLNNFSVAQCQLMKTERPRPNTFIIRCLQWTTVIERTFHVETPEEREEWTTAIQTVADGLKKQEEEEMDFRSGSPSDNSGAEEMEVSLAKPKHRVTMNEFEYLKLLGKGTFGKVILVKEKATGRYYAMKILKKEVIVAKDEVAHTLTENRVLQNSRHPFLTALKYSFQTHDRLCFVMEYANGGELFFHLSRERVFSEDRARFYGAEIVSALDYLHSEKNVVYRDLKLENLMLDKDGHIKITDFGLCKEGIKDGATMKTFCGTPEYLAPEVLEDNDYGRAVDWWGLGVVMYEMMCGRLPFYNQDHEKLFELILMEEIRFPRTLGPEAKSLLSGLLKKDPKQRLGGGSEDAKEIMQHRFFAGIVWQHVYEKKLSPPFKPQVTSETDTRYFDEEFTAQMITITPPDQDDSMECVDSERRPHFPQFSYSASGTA
Procedure: as §1
Akt1 protein (life technology # lot11629928C)
as §2, §3, §4

T1 sequence (Q9Y243 whole entry): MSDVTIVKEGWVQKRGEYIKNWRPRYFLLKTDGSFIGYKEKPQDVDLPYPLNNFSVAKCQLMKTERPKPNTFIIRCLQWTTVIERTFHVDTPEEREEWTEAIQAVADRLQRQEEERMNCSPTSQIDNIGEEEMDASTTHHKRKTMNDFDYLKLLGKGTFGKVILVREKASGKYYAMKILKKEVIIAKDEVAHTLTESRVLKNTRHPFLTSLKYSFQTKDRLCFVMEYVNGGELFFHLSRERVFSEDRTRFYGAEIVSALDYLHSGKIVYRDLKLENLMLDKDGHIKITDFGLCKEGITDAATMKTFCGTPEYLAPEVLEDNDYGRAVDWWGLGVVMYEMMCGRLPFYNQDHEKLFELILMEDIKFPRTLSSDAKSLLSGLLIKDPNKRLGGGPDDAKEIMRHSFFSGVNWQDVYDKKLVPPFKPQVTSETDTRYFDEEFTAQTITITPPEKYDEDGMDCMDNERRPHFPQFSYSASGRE

IC50 (Akt3) [nM]	IC50 (Akt2) [nM]	IC50 (LNCaP cells) [nM]	IC50 (Akt1) [nM]	SMILES
21	24	58	0.36	NC[C@H](Cc1cccc(F)c1)NC(=O)c1cc2c(s1)CCCn1ncc(Cl)c1-2 [Embodiment 1]
294	266	666	6.64	NC[C@H](Cc1cccnc1)NC(=O)c1cc2c(s1)CCCn1ncc(Cl)c1-2 [Embodiment 2]
1130	163	2010	39	NC[C@H](Cc1ccncc1)NC(=O)c1cc2c(s1)CCCn1ncc(Cl)c1-2 [Embodiment 3]
40	32	182	0.6	NC[C@H](Cc1cccc(Cl)c1)NC(=O)c1cc2c(s1)CCCn1ncc(Cl)c1-2 [Embodiment 4]
77	77	199	2.54	NC[C@H](Cc1ccc(F)cc1F)NC(=O)c1cc2c(s1)CCCn1ncc(Cl)c1-2 [Embodiment 5]
95	101	297	3.78	NC[C@H](Cc1ccccc1F)NC(=O)c1cc2c(s1)CCCn1ncc(Cl)c1-2 [Embodiment 6]
24	19	59	0.71	NC[C@H](Cc1ccc(F)c(F)c1)NC(=O)c1cc2c(s1)CCCn1ncc(Cl)c1-2 [Embodiment 7]
69	107	534	3.62	NC[C@H](Cc1ccc(Cl)cc1)NC(=O)c1cc2c(s1)CCCn1ncc(Cl)c1-2 [Embodiment 8]
44	25	236	1.39	NC[C@H](Cc1ccc(Cl)c(Cl)c1)NC(=O)c1cc2c(s1)CCCn1ncc(Cl)c1-2 [Embodiment 9]
29	17	159	0.63	NC[C@H](Cc1ccccc1C(F)(F)F)NC(=O)c1cc2c(s1)CCCn1ncc(Cl)c1-2 [Embodiment 10]
80	66	287	2.28	NC[C@H](Cc1cccc(C(F)(F)F)c1)NC(=O)c1cc2c(s1)CCCn1ncc(Cl)c1-2 [Embodiment 11]
867	4830	4890	116	CN(C)C[C@H](Cc1cccc(F)c1)NC(=O)c1cc2c(s1)CCCn1ncc(Cl)c1-2 [Embodiment 12]
189	188	514	11	NC[C@@H](NC(=O)c1cc2c(s1)CCCn1ncc(Cl)c1-2)c1ccccc1 [Embodiment 13]
34	11	36	0.33	NC[C@H](Cc1cccc(F)c1)NC(=O)c1cc2c(s1)CCCn1ncc(Br)c1-2 [Embodiment 14]
16	20	85	0.67	NC[C@H](Cc1ccc(F)c(F)c1F)NC(=O)c1cc2c(s1)CCCn1ncc(Br)c1-2 [Embodiment 15]
45	45	233	0.85	NC[C@H](Cc1cccc(F)c1F)NC(=O)c1cc2c(s1)CCCn1ncc(Br)c1-2 [Embodiment 16]
41	38	230	0.68	NC[C@H](Cc1cc(F)ccc1F)NC(=O)c1cc2c(s1)CCCn1ncc(Br)c1-2 [Embodiment 17]
10	8	77	0.27	NC[C@H](Cc1ccc(F)c(F)c1)NC(=O)c1cc2c(s1)CCCn1ncc(Br)c1-2 [Embodiment 18]

IC50 (Akt3) [nM]	IC50 (Akt2) [nM]	IC50 (LNCaP cells) [nM]	IC50 (Akt1) [nM]	SMILES
8.7	8	23	0.03	NC[C@H](Cc1cc(F)cc(F)c1)NC(=O)c1cc2c(s1)CCCn1ncc(Br)c1-2 [Embodiment 19]
374	428	487	11	NC[C@H](Cc1ccccn1)NC(=O)c1cc2c(s1)CCCn1ncc(Br)c1-2 [Embodiment 20]
98	312	615	13.3	NC[C@H](Cc1ccc(F)c(F)c1)NC(=O)c1cc2c(o1)CCCn1ncc(Cl)c1-2 [Embodiment 21]
60	26	61	2.18	Cc1cnn2c1-c1cc(C(=O)N[C@H](CN)Cc3cccc(F)c3)sc1CCC2 [Embodiment 22]
52	372	1340	8.84	NC[C@H](Cc1cccc(F)c1)NC(=O)c1cc2c(s1)CCCn1ncc(-c3ccccc3)c1-2 [Embodiment 23]
398	1860	3560	67.4	NC[C@H](Cc1cccc(F)c1)NC(=O)c1cc2c(s1)CCCn1ncc(-c3cccnc3)c1-2 [Embodiment 24]
83	143	389	5.22	CCc1cnn2c1-c1cc(C(=O)N[C@H](CN)Cc3cccc(F)c3)sc1CCC2 [Embodiment 25]
119	304	971	14.7	NC[C@H](Cc1cccc(F)c1)NC(=O)c1cc2c(s1)CCCn1ncc(C(F)(F)F)c1-2 [Embodiment 27]
286	589	1420	33.3	NC[C@H](Cc1cccc(F)c1)NC(=O)c1cc2c(s1)CCCn1ncc(F)c1-2 [Embodiment 28]
783	1100	2620	36	NCC(CCc1ccccc1)NC(=O)c1cc2c(s1)CCCn1ncc(Cl)c1-2 (centres unmarked) [Embodiment 29]
485	281	654	12.4	COC1CCn2ncc(Cl)c2-c2cc(C(=O)N[C@H](CN)Cc3cccc(F)c3)sc21 (some centres unmarked) [Embodiment 30]
819	3130	5710	124	NC[C@H](Cc1cccc(F)c1)NC(=O)c1cc2c(s1)C(=O)CCn1ncc(Cl)c1-2 [Embodiment 31]
814	2930	> 10000	117	NC[C@H](Cc1cccc(F)c1)NC(=O)c1cc2c(s1)C(O)CCn1ncc(Cl)c1-2 (some centres unmarked) [Embodiment 32]
108	490	1750	13	NC[C@H](Cc1cccc(F)c1)NC(=O)c1cc2c(s1)C(F)(F)CCn1ncc(Cl)c1-2 [Embodiment 33]
513	983	2360	36	CNC[C@H](Cc1cccc(F)c1)NC(=O)c1cc2c(s1)CCCn1ncc(Cl)c1-2 [Embodiment 34]
34	22	150	0.43	Cc1cnn2c1-c1cc(C(=O)N[C@H](CN)Cc3ccc(F)c(F)c3)sc1CCC2 [Embodiment 35]
195	235	902	9.78	NC[C@H](Cc1cccc(F)c1)NC(=O)c1cc2n(n1)CCCn1ncc(Cl)c1-2 [Embodiment 36]
29	35		1.73	NC[C@H](Cc1ccc(F)c(F)c1)NC(=O)c1cc2c(s1)OCCn1ncc(Br)c1-2 [Embodiment 37]
